DBAASP
≈ marks a conversion by molar mass, not a printed value.

Tests used:
Experiment in all cases: ≥ marks a high value that may be exact or a test limit, other limits are often not marked, values filed in µg/mL are converted to µM
Bacillus anthracis = tested on: Bacillus anthracis
Bacillus cereus = tested on: Bacillus cereus
Escherichia coli = tested on: Escherichia coli
Staphylococcus aureus = tested on: Staphylococcus aureus
[1] = tested on: Bacillus subtilis ATCC 6633
[2] = tested on: Candida albicans ATCC 20032
[3] = tested on: Escherichia coli ATCC 25922
[4] = tested on: Staphylococcus aureus ATCC 25923
[5] = tested on: Bacillus subtilis CCT 2576
[6] = tested on: Pseudomonas aeruginosa ATCC 15442
[7] = tested on: Staphylococcus aureus ATCC 6538
[8] = tested on: Escherichia coli DH5alpha
Staphylococcus xylosus = tested on: Staphylococcus xylosus
Escherichia coli JM109 = tested on: Escherichia coli JM109
Bacillus subtilis = tested on: Bacillus subtilis
Candida albicans = tested on: Candida albicans
Cryptococcus neoformans = tested on: Cryptococcus neoformans
Pseudomonas putida = tested on: Pseudomonas putida
Saccharomyces cerevisiae = tested on: Saccharomyces cerevisiae
Salmonella typhimurium = tested on: Salmonella typhimurium
Serratia marcescens = tested on: Serratia marcescens
Streptococcus mutans = tested on: Streptococcus mutans
Streptococcus pneumoniae = tested on: Streptococcus pneumoniae
Candida albicans MDM8 = tested on: Candida albicans MDM8
Escherichia coli SBS 363 = tested on: Escherichia coli SBS 363
Micrococcus luteus A270 = tested on: Micrococcus luteus A270
[9] = tested on: Pseudomonas aeruginosa ATCC 27853
[10] = tested on: Salmonella enterica subsp. arizonae ATCC 13314
Listeria innocua = tested on: Listeria innocua
[11] = tested on: Salmonella enterica subsp. enterica serovar Enteritidis

CC(C)C[C@H](NC(=O)[C@@H](NC(=O)[C@@H]1CCCN1C(=O)[C@H](CC(C)C)NC(=O)[C@@H](N)Cc1ccccc1)C(C)C)C(=O)N[C@H](C(=O)N[C@@H](CCCCN)C(=O)N[C@H](C(=O)N[C@@H](Cc1ccccc1)C(=O)N[C@@H](CCCN=C(N)N)C(=O)N[C@@H](Cc1ccc(O)cc1)C(=O)N[C@@H](CO)C(=O)N[C@@H](CCCCN)C(=O)N[C@@H](CCCCN)C(=O)N[C@H](C(=O)N[C@@H](C)C(=O)N[C@@H](C)C(=O)NCC(=O)N[C@@H](CS)C(=O)N[C@@H](Cc1ccccc1)C(=O)O)[C@@H](C)O)C(C)C)C(C)C [FLPVLVKVFRYSKKTAAGCF]
MIC (Bacillus anthracis): ≥ 113 µM
MIC (Bacillus cereus): 28.1 µM (≈ 64 µg/mL)
MIC (Escherichia coli): > 56.3 µM
MIC (Staphylococcus aureus): > 113 µM

CC[C@H](C)[C@H](N)C(=O)N[C@@H](CC(C)C)C(=O)NCC(=O)N1CCC[C@H]1C(=O)N[C@H](C(=O)N[C@H](C(=O)N[C@@H](CCCCN)C(=O)N[C@H](C(=O)N[C@H](C(=O)NCC(=O)NCC(=O)N[C@H](C(=O)N[C@H](C(=O)NCC(=O)NCC(=O)N[C@@H](CC(C)C)C(=O)N[C@@H](CC(C)C)C(=O)N[C@@H](CCCCN)C(=O)N[C@@H](CC(N)=O)C(=O)N[C@@H](CC(C)C)C(N)=O)[C@@H](C)CC)C(C)C)[C@@H](C)CC)[C@@H](C)O)[C@@H](C)CC)C(C)C [ILGPVIKTIGGVIGGLLKNL]
MIC [1]: 9.52 µM (≈ 18.8 µg/mL)
MIC [2]: 9.52 µM (≈ 18.8 µg/mL)
MIC [3]: > 50.6 µM
MIC [4]: 4.76 µM (≈ 9.4 µg/mL)

CC[C@H](C)[C@H](N)C(=O)N[C@@H](CC(C)C)C(=O)NCC(=O)N1CCC[C@H]1C(=O)N[C@H](C(=O)N[C@@H](CC(C)C)C(=O)NCC(=O)N[C@@H](CC(C)C)C(=O)N[C@H](C(=O)N[C@@H](CO)C(=O)N[C@@H](CC(N)=O)C(=O)N[C@H](C(=O)N[C@@H](CC(C)C)C(=O)N[C@@H](CC(=O)O)C(=O)N[C@@H](CC(=O)O)C(=O)N[C@H](C(=O)N[C@@H](CC(C)C)C(=O)NCC(=O)N[C@H](C(=O)N[C@@H](CC(C)C)C(N)=O)[C@@H](C)CC)C(C)C)[C@@H](C)O)C(C)C)C(C)C [ILGPVLGLVSNTLDDVLGIL]
MIC [1]: ≥ 49.5 µM
MIC [2]: ≥ 49.5 µM
MIC [3]: > 49.5 µM
MIC [4]: > 49.5 µM

CC[C@H](C)[C@H](N)C(=O)N[C@@H](CC(C)C)C(=O)NCC(=O)N[C@H](C(=O)N[C@H](C(=O)N[C@@H](CC(C)C)C(=O)NCC(=O)N[C@@H](CC(C)C)C(=O)N[C@@H](CC(C)C)C(=O)N[C@@H](CCCCN)C(=O)NCC(=O)N[C@@H](CC(C)C)C(N)=O)[C@@H](C)CC)[C@@H](C)O [ILGTILGLLKGL]
MIC [5]: 1.24 µM (≈ 1.5 µg/mL)
MIC [3]: 10.3 µM (≈ 12.5 µg/mL)
MIC [6]: 1.4 µM (≈ 1.7 µg/mL)
MIC [7]: 10.3 µM (≈ 12.5 µg/mL)

CC[C@H](C)[C@H](N)C(=O)N[C@@H](CC(C)C)C(=O)N[C@H](C(=O)N[C@@H](CCCCN)C(=O)N[C@@H](CCCN=C(N)N)C(=O)N[C@@H](CCCCN)C(=O)O)[C@@H](C)CC [ILIKRK]
MIC [8]: ≥ 64 µM
MIC (Staphylococcus xylosus): ≥ 64 µM

CC[C@H](C)[C@H](N)C(=O)N[C@@H](CC(N)=O)C(=O)N[C@@H](Cc1c[nH]c2ccccc12)C(=O)N[C@@H](CCCCN)C(=O)N[C@@H](CCCCN)C(=O)N[C@H](C(=O)N[C@@H](C)C(=O)N[C@@H](CCC(=O)O)C(=O)N[C@H](C(=O)NCC(=O)NCC(=O)N[C@@H](CCCCN)C(=O)N[C@H](C(=O)N[C@@H](CC(C)C)C(=O)N[C@@H](CO)C(=O)N[C@@H](CO)C(=O)N[C@@H](CC(C)C)C(N)=O)[C@@H](C)CC)C(C)C)[C@@H](C)CC [INWKKIAEVGGKILSSL]
MIC [1]: 1.08 µM (≈ 2 µg/mL)
MIC (Escherichia coli JM109): 4.31 µM (≈ 8 µg/mL)

CC(C)C[C@H](NC(=O)[C@H](CCCN=C(N)N)NC(=O)[C@H](Cc1cnc[nH]1)NC(=O)[C@@H](NC(=O)[C@H](CCCN=C(N)N)NC(=O)CNC(=O)[C@@H](NC(=O)[C@@H]1CCCN1C(=O)[C@H](Cc1ccccc1)NC(=O)[C@H](CCC(N)=O)NC(=O)[C@H](CC(C)C)NC(=O)CNC(=O)[C@H](C)NC(=O)[C@@H](N)CCCN=C(N)N)C(C)C)C(C)C)C(=O)O [RAGLQFPVGRVHRL]
MIC (Bacillus subtilis): ≥ 79.7 µM
MIC (Candida albicans): > 159 µM
MIC (Cryptococcus neoformans): ≥ 159 µM
MIC (Escherichia coli): 159 µM (≈ 256 µg/mL)
MIC (Pseudomonas putida): ≥ 159 µM
MIC (Saccharomyces cerevisiae): ≥ 159 µM
MIC (Salmonella typhimurium): ≥ 79.7 µM
MIC (Serratia marcescens): ≥ 159 µM
MIC (Staphylococcus aureus): 159 µM (≈ 256 µg/mL)
MIC (Streptococcus mutans): ≥ 159 µM
MIC (Streptococcus pneumoniae): ≥ 79.7 µM

CC(C)C[C@H](NC(=O)[C@H](CC(C)C)NC(=O)[C@H](CCCN=C(N)N)NC(=O)[C@H](CCCN=C(N)N)NC(=O)[C@H](CC(C)C)NC(=O)[C@H](CC(C)C)NC(=O)[C@H](CCCN=C(N)N)NC(=O)[C@H](CCCN=C(N)N)NC(=O)[C@H](CC(C)C)NC(=O)[C@H](CC(C)C)NC(=O)[C@H](CCCN=C(N)N)NC(=O)[C@H](CCCN=C(N)N)NC(=O)[C@H](CC(C)C)NC(=O)[C@H](CC(C)C)NC(=O)[C@H](CCCN=C(N)N)NC(=O)[C@H](CCCN=C(N)N)NC(=O)[C@H](CC(C)C)NC(=O)[C@H](CC(C)C)NC(=O)[C@@H](N)CCCN=C(N)N)C(=O)N[C@@H](CCCN=C(N)N)C(=O)O [RLLRRLLRRLLRRLLRRLLR]
MIC (Bacillus subtilis): 0.738 µM (≈ 2 µg/mL)
MIC (Candida albicans): 2.95 µM (≈ 8 µg/mL)
MIC (Cryptococcus neoformans): 2.95 µM (≈ 8 µg/mL)
MIC (Escherichia coli): 0.738 µM (≈ 2 µg/mL)
MIC (Pseudomonas putida): 0.738 µM (≈ 2 µg/mL)
MIC (Saccharomyces cerevisiae): 2.95 µM (≈ 8 µg/mL)
MIC (Salmonella typhimurium): 0.369 µM (≈ 1 µg/mL)
MIC (Serratia marcescens): 0.738 µM (≈ 2 µg/mL)
MIC (Staphylococcus aureus): 0.369 µM (≈ 1 µg/mL)
MIC (Streptococcus mutans): 0.738 µM (≈ 2 µg/mL)
MIC (Streptococcus pneumoniae): 0.738 µM (≈ 2 µg/mL)

CC[C@H](C)[C@H](NC(=O)[C@H](CC(C)C)NC(=O)[C@H](CO)NC(=O)[C@H](CC(C)C)NC(=O)[C@H](CC(C)C)NC(=O)[C@@H](N)CO)C(=O)N[C@@H](CCCN=C(N)N)C(=O)N[C@@H](CCCCN)C(=O)N[C@@H](CC(C)C)C(=O)N[C@@H](CC(C)C)C(=O)N[C@H](C(N)=O)[C@@H](C)O [SLLSLIRKLLT]
MIC (Candida albicans MDM8): 0.4 µM (≈ 0.502 µg/mL)
MIC (Escherichia coli SBS 363): 1.6 µM (≈ 2.01 µg/mL)
MIC (Micrococcus luteus A270): 0.4 µM (≈ 0.502 µg/mL)
MIC [9]: 1.6 µM (≈ 2.01 µg/mL)
MIC [10]: ≥ 50 µM

CC(C)C[C@H](NC(=O)[C@@H](N)C(C)C)C(=O)N[C@@H](CO)C(=O)N[C@@H](C)C(=O)N[C@@H](C)C(=O)N[C@@H](CC(=O)O)C(=O)N[C@@H](CCCCN)C(=O)NCC(=O)N[C@@H](CC(N)=O)C(=O)N[C@H](C(=O)N[C@@H](CCCCN)C(=O)N[C@@H](C)C(=O)N[C@@H](C)C(=O)N[C@@H](Cc1c[nH]c2ccccc12)C(=O)NCC(=O)N[C@@H](CCCCN)C(=O)N[C@H](C(=O)NCC(=O)NCC(=O)N[C@@H](Cc1cnc[nH]1)C(=O)N[C@@H](C)C(=O)N[C@@H](C)C(=O)N[C@@H](CCC(=O)O)C(=O)N[C@@H](Cc1ccc(O)cc1)C(=O)NCC(=O)N[C@@H](C)C(=O)N[C@@H](CCC(=O)O)C(=O)N[C@@H](C)C(=O)O)C(C)C)C(C)C [VLSAADKGNVKAAWGKVGGHAAEYGAEA]
MIC (Escherichia coli): 54 µM (≈ 147 µg/mL)
MIC (Listeria innocua): 27 µM (≈ 73.7 µg/mL)
MIC (Micrococcus luteus A270): ≥ 54 µM
MIC [11]: 27 µM (≈ 73.7 µg/mL)

CC(C)C[C@H](NC(=O)[C@H](CC(C)C)NC(=O)[C@H](CO)NC(=O)[C@H](CCCCN)NC(=O)[C@H](CC(C)C)NC(=O)[C@@H]1CCCN1C(=O)[C@H](C)NC(=O)[C@H](Cc1ccccc1)NC(=O)[C@@H]1CCCN1C(=O)[C@H](CC(C)C)NC(=O)[C@@H](NC(=O)[C@H](CCCCN)NC(=O)[C@H](CCCCN)NC(=O)[C@@H](NC(=O)[C@H](CO)NC(=O)[C@@H](N)C(C)C)C(C)C)C(C)C)C(=O)N[C@@H](CO)C(=O)N[C@@H](Cc1ccccc1)C(=O)N[C@@H](C)C(=O)N[C@@H](Cc1ccccc1)C(=O)O [VSVKKVLPFAPLKSLLSFAF]
MIC (Bacillus anthracis): ≥ 117 µM
MIC (Bacillus cereus): ≥ 117 µM
MIC (Escherichia coli): 117 µM (≈ 256 µg/mL)
MIC (Staphylococcus aureus): > 117 µM
